From US12479834B2, “Phenol compound or salt thereof” (TAIHO PHARMACEUTICAL CO., LTD., priority 2019, dated 2025)

Columns and labels:
NCI-H358 cells = assay: Growth inhibition of KRAS-G12C mutant cell line NCI-H358 (CellTiter-Glo 2.0); assay type: cell-based; details: Homo sapiens, 72 h; NCI-H358, 3-day culture with compound
Method: KRAS-G12C mutant human lung cancer cell line NCI-H358 cells (ATCC, Cat #: CRL-5807) were suspended in RPMI1640 medium (manufactured by Fujifilm Wako Pure Chemical Corp.) containing 10% fetal bovine serum. The cell suspension was seeded at 500 cells/well into the wells of a 384-well flat-bottom microplate and cultured at 37° C. for 1 day in an incubator containing 5% CO2. The compound of the present invention was dissolved in DMSO and diluted with DMSO such that the concentration of the test compound was 500 times the final concentration. The solution of the test compound in DMSO was diluted with the medium used for suspending the cells, and the resultant was added to each well of the cell culture plate such that the final concentration of DMSO was 0.2%, followed by culture at 37° C. for another 3 days in an incubator containing 5% CO2.
Growth inhibition rate (%)=(C−T)/(C)×100 • T: the emission intensity in a well supplemented with the test compound. • C: the emission intensity in a well not supplemented with the test compound.

KRAS G12C mutant = biological target: T1, KRAS G12C mutant (Homo sapiens, UniProt P01116, G12C); assay: Inhibition of SOS1-mediated nucleotide (GDP-GTP) exchange reaction of KRAS G12C mutant, BODIPY FL GDP fluorescence; assay type: biochemical; details: preincubated 25° C. 4 hours with 25 nM KRAS G12C bound with BODIPY FL GDP; SOS1 100 nM, GppNHp 1 μM, 30 minutes
T1 construct: 50 μM G12C K-Ras4B (1-169) protein and 1 mM BODIPY® FL GDP; His tag (N, cleaved yes); made in house; host or cells: E. coli BL21 (DE3)
How it was run: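 KRAS G12C (1-169) loaded with BODIPY FL GDP (25 nM) was preincubated with compound (5% DMSO) for 4 h at 25 °C. Exchange then ran 30 min with SOS1 (564-1049, 100 nM) and 1 µM GppNHp. IC50 came from the 485/520 nm fluorescence change, normalized to DMSO and no-GppNHp controls.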

G12C K-Ras4B (1-169) = biological target: T2, G12C K-Ras4B (1-169) (Homo sapiens, UniProt P01116, G12C); assay: Binding to KRAS G12C mutant, compound binding rate by LC-MS; details: final compound concentration 2 μM, 1 μM protein, 2 hours at 25° C.
T2 construct: G12C K-Ras4B (1-169) protein, which was a KRAS G12C mutant; His tag (N, cleaved yes); made in house; host or cells: E. coli BL21 (DE3)
How it was run: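 Covalent labelling at 2 μM final compound on a mix of 1 μM each wild-type and G12C K-Ras4B (1-169) (E. coli-expressed, tag removed) in 1×TBS, 0.1 mM TCEP, 2 h at 25° C., quenched with formic acid. Intact-protein ESI Q-TOF LC-MS; binding rate from adduct vs unbound protein signal, graded A–E in 20% bands.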

| Structure (SMILES) | IC50 (NCI-H358 cells) | IC50 (KRAS G12C mutant) | binding rate for G12C K-Ras4B (1-169) (G12C K-Ras4B (1-169)) |
| --- | --- | --- | --- |
| C=CC(=O)N1CC(NC(=O)c2sc(CNc3cc(C(C)(C)C)c(Cl)cc3O)nc2C)C1 [Example 20, N-(1-Acryloylazetidin-3-yl)-2-(((5-(tert-butyl)-4-chloro-2-hydroxyphenyl)amino)methyl)-4-methylthiazole-5-carboxamide] | 658 nM | 13 nM | A (80% or more) |
| C=CC(=O)N1CC(NC(=O)c2c(C)nc(CNc3cc(C(C)(C)C)c(Cl)cc3O)n2Cc2ccccc2)C1 [Example 40, N-(1-Acryloylazetidin-3-yl)-1-benzyl-2-(((5-(tert-butyl)-4-chloro-2-hydroxyphenyl)amino)methyl)-4-methyl-1H-imidazole-5-carboxamide] | 535 nM | 13 nM | A (80% or more) |
| C=CC(=O)N1CC(NC(=O)c2cnc(CNc3cc(C(C)(C)C)c(Cl)cc3O)n2C)C1 [Example 18, N-(1-Acryloylazetidin-3-yl)-2-(((5-(tert-butyl)-4-chloro-2-hydroxyphenyl)amino)methyl)-1-methyl-1H-imidazole-5-carboxamide] | 562 nM | 11 nM | A (80% or more) |
| C=CC(=O)N1CC(NC(=O)c2c(C)nc(CNc3cc(C(C)(C)C)c(Cl)cc3O)n2C)C1 [Example 39, N-(1-Acryloylazetidin-3-yl)-2-(((5-(tert-butyl)-4-chloro-2-hydroxyphenyl)amino)methyl)-1,4-dimethyl-1H-imidazole-5-carboxamide] | 112 nM | 5 nM | A (80% or more) |

Continued, values first:

| IC50 (NCI-H358 cells) | IC50 (KRAS G12C mutant) | binding rate for G12C K-Ras4B (1-169) (G12C K-Ras4B (1-169)) | Structure (SMILES) |
| --- | --- | --- | --- |
| 1100 nM | 55 nM | B (60% or more and less than 80%) | C=CC(=O)N1CC(NC(=O)c2c(C)nc(Cc3cc(C(C)(C)C)c(Cl)cc3O)n2C)C1 [Example 92, N-(1-Acryloylazetidin-3-yl)-2-(5-(tert-butyl)-4-chloro-2-hydroxybenzyl)-1,4-dimethyl-1H-imidazole-5-carboxamide] |
| 1360 nM | 65 nM | A (80% or more) | C=CC(=O)N1CC(NC(=O)c2c(C)nn(Cc3cc(C(C)(C)C)c(Cl)cc3O)c2C)C1 [Example 96, N-(1-Acryloylazetidin-3-yl)-1-(5-(tert-butyl)-4-chloro-2-hydroxybenzyl)-3,5-dimethyl-1H-pyrazole-4-carboxamide] |
| 683 nM | 22 nM | A (80% or more) | C=CC(=O)N1CC(NC(=O)c2cnc(Cc3cc(C(C)(C)C)c(Cl)cc3O)n2C)C1 [Example 97, N-(1-Acryloylazetidin-3-yl)-2-(5-(tert-butyl)-4-chloro-2-hydroxybenzyl)-1-methyl-1H-imidazole-5-carboxamide] |
